From article PMC8153946, “Substrate Selectivity of Coumarin Derivatives by Human CYP1 Enzymes: In Vitro Enzyme Kinetics and In Silico Modeling” (ACS Omega, 2021)

Assays:
Type in all cases: biochemical
human CYP1A1 = biological target: T1, human CYP1A1 (Homo sapiens, UniProt P04798); test: Michaelis–Menten kinetics of oxidation to fluorescent 7-hydroxy metabolite by recombinant CYP1A1; design: key to screening activity class: NA, no activity was observed.; LA, low screening activity at the 20 μM substrate and 25 nM CYP concentration; conditions: for screening activity class: CYP1A1, 20 μM substrate and 25 nM CYP; for Vmax: recombinant CYP1A1, surrogate standard, 95% confidence interval in brackets
T1 construct: purchased BD Biosciences Discovery Labware (Woburn, MA, USA); host or cells: baculovirus-insect cells
T1 sequence (P04798 1-512): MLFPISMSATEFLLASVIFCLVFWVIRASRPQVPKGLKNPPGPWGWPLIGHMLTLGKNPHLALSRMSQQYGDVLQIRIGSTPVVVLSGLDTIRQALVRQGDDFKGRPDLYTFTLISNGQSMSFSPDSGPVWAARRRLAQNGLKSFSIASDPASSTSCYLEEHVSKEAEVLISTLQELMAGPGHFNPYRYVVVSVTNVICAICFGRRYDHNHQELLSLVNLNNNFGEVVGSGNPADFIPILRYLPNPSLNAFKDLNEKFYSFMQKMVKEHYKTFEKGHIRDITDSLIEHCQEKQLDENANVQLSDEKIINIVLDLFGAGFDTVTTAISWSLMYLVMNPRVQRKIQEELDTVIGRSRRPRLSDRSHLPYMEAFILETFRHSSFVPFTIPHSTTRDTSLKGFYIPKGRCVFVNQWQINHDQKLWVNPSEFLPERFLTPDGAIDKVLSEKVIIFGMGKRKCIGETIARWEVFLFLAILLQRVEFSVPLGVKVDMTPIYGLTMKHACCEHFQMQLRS
Procedure: (§1) Baculovirus-insect cell-expressed human CYP1A1, CYP1A2, CYP1B1, CYP2A6, CYP2B6, CYP2C8, CYP2C9, CYP2C19, CYP2D6, CYP2E1, CYP3A4, CYP3A5, and CYP3A7 were purchased from BD Biosciences Discovery Labware (Woburn, MA, USA) and used according to the manufacturer’s instructions.
(§2) The kinetic assays were carried out in 100 μL volume containing 100 mM Tris-HCl buffer pH 7.4, 0–40 μM coumarin derivative or 0–10 μM 7-ethoxyresorufin, 1–25 nM recombinant CYP or 0–0.1 g/L microsomal protein, and 20% NADPH regenerating system. Incubations took place at 37 °C in 96-multiwell plates; the fluorescence was measured with a Victor[2] plate reader (PerkinElmer Life Sciences, Turku, Finland). The detailed conditions are described in the figures and tables. The reaction was started by adding NADPH, and fluorescence was measured at 2 min intervals for 40 min using excitation at 405 nm and emission at 460 nm for oxidation of coumarin derivatives[18] and excitation at 570 nm and emission at 615 nm for ethoxyresorufin or pentoxyresorufin 7-O-dealkylations. Incubations without the substrate, enzyme, or NADPH were used as blank reactions. Resorufin was used as a standard, and 3-(4-fluorophenyl)-7-hydroxycoumarin was used as the surrogate standards to calculate the amount of product formed. The linear phase of the reactions was used for calculations.
(§3) Enzyme kinetic parameters were analyzed using the nonlinear Michaelis–Menten equation v = Vmax × S/(Km + S), in which v is the rate for 7-hydroxylation of a coumarin derivative, S is its concentration, and Vmax value is the limiting rate of the reaction of 7-hydroxylation, which reached a half-maximal rate at a concentration of Km for the substrate.

human CYP1B1 = biological target: T2, human CYP1B1 (Homo sapiens, UniProt Q16678); test: Michaelis–Menten kinetics of oxidation to fluorescent 7-hydroxy metabolite by recombinant CYP1B1; design: key to screening activity class: NA, no activity was observed.; LA, low screening activity at the 20 μM substrate and 25 nM CYP concentration; conditions: for screening activity class: CYP1B1, 20 μM substrate and 25 nM CYP
T2 construct: purchased BD Biosciences Discovery Labware (Woburn, MA, USA); host or cells: baculovirus-insect cells
T2 sequence (Q16678 1-543): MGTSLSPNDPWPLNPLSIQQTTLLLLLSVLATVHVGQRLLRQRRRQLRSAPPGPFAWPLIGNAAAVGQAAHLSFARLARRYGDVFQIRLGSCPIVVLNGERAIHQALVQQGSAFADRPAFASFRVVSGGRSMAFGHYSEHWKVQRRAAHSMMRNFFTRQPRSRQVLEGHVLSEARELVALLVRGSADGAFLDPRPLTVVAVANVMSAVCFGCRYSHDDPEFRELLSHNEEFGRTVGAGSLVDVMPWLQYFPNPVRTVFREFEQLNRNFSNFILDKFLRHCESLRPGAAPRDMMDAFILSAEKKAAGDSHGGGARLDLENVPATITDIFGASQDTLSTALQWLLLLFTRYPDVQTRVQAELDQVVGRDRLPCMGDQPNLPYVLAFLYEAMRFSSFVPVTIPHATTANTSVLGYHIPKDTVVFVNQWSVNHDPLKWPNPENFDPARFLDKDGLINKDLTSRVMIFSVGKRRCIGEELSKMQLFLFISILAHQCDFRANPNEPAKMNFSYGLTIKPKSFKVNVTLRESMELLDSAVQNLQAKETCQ
Procedure: as §1, §2, §3

[1] = system: 13 recombinant human CYP enzymes; test: Oxidation rates by 13 recombinant human CYP enzymes at fixed substrate concentration (Figure 2); conditions: 25 nM CYP; for CYP1 form oxidizing the substrate fastest: 10 μM coumarin derivative or 1 μM 7-ethoxy/7-pentoxyresorufin; for fluorescence change and rate of the oxidation / oxidation rate relative to oxidation of 7-pentoxyresorufin: fixed substrate concentration
Procedure: as §1, §2
To find out which CYP forms oxidize the 11 novel coumarin derivatives, we determined their oxidation rates to the corresponding 7-hydroxycoumarin metabolites by 13 recombinant human CYP enzymes at a fixed 10 μM substrate concentration (Figure 2). All except 21, 22, and 23 were oxidized faster by one or several CYP1 forms than by the other CYP forms. […] Oxidation rates of the classical CYP substrates 7-ethoxycoumarin, 7-ethoxyresorufin, and 7-pentoxyresorufin were also determined. […] Oxidation of 7-ethoxycoumarin and 7-ethoxyresorufin was 35 and 60 times faster, respectively, than oxidation of 7-pentoxyresorufin. 7-Ethoxyresorufin was oxidized by CYP1A2 and CYP1B1 at 30–40% of the rate of CYP1A1.
Figure 2 Oxidation of the coumarin derivatives and 7-ethoxy- and 7-pentoxyresorufin by 13 human CYP forms. The formation of fluorescent metabolites was determined in incubations containing a 25 nM CYP, a 20% NADPH regenerating system, and a 10 μM coumarin derivative or 1 μM 7-ethoxy/7-pentoxyresorufin in 100 mM Tris-HCl pH 7.4 in the kinetic experimental setup. […] Note the variation in Y-axis scales between subpanels.

[2] = system: human CYP1 enzymes (CYP1A1, CYP1A2, CYP1B1); test: Oxidation efficiency compared across all CYP1 forms (Table 1); conditions: based on Table 1
Procedure: as §1, §2, §3

CYP1A2 = biological target: T3, CYP1A2 (Homo sapiens, UniProt P05177); test: Michaelis–Menten kinetics of oxidation to fluorescent 7-hydroxy metabolite by recombinant CYP1A2; design: key to screening activity class: NA, no activity was observed.; LA, low screening activity at the 20 μM substrate and 25 nM CYP concentration
T3 construct: purchased BD Biosciences Discovery Labware (Woburn, MA, USA); host or cells: baculovirus-insect cells
T3 sequence (P05177 1-516): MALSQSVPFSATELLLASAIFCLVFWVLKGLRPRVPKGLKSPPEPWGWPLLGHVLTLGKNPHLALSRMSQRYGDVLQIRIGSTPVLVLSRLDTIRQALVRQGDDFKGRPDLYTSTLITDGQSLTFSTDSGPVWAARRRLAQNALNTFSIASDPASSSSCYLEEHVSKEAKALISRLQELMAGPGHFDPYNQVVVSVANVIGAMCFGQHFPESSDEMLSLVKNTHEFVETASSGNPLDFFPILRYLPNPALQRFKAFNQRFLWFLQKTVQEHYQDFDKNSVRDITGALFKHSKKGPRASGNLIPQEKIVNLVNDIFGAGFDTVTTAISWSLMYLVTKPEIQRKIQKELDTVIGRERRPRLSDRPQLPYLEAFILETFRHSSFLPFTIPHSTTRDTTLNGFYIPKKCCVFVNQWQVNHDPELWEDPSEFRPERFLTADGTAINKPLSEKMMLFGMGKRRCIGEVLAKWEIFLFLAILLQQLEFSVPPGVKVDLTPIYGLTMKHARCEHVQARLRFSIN
Procedure: as §1, §2, §3

SMILES	screening activity class (human CYP1B1)	CYP1 form oxidizing the substrate fastest [1]	substrate efficiency compared among CYP1 enzymes [2]	also measured
Cc1ccc2oc(=O)c(-c3ccc(F)cc3)cc2c1 [Compound 21, 3-(4-fluorophenyl)-6-methylcoumarin]	LA	oxidized faster by CYP1A2 than CYP1A1 or CYP1B1		screening activity class (human CYP1A1): LA; fluorescence change and rate of the oxidation [1]: almost equally low
COc1ccc2oc(=O)c(-c3ccc(OC(F)(F)F)cc3)cc2c1 [Compound 16, 3-(4-trifluoromethoxyphenyl)-6-methoxycoumarin]	LA	oxidized faster by CYP1A1 than CYP1A2 or CYP1B1	oxidized with equal efficiency by CYP1A1 and CYP1A2 and weakly by CYP1B1	
COc1cccc(-c2cc3cc(OC)ccc3oc2=O)c1 [Compound 19, 3-(3-methoxyphenyl)-6-methoxycoumarin]		oxidized faster by CYP1A1 than CYP1A2 or CYP1B1	oxidized with equal efficiency by all CYP1 enzymes	
CCOc1ccc2ccc(=O)oc2c1 [Compound 24, 7-ethoxycoumarin, reference compound]		oxidized faster by CYP1A1 than the other CYP1 enzymes	efficient substrates for CYP1A1 compared with CYP1A2 and CYP1B1	Km (CYP1A2; human, recombinant CYP1A2 (baculovirus-insect cell-expressed), recombinant CYP1A2, 100 mM Tris-HCl pH 7.4, 37 °C, 95% confidence interval in brackets): 7.7 µM; Vmax (CYP1A2; recombinant CYP1A2, surrogate standard, 95% confidence interval in brackets): 2.0 (1.4–2.6) mol/(min·mol CYP); oxidation rate relative to oxidation of 7-pentoxyresorufin [1]: 35 times
CC(=O)Oc1cccc(-c2cc3cc(Cl)ccc3oc2=O)c1 [Compound 22, 3-(3-acetoxyphenyl)-6-chlorocoumarin]		oxidized faster by CYP1B1 than by CYP1A1 or CYP1A2		screening activity class (human CYP1A1): LA; screening activity class (CYP1A2; CYP1A2, 20 μM substrate and 25 nM CYP): LA; fluorescence change and rate of the oxidation [1]: almost equally low
CC(=O)Oc1ccc(-c2cc3cc(Cl)ccc3oc2=O)cc1 [Compound 20, 3-(4-acetoxyphenyl)-6-chlorocoumarin]		oxidized faster by CYP1A1 than CYP1A2 or CYP1B1	efficient substrate for CYP1B1 compared with CYP1A1 and 1A2	Vmax (human CYP1A1): 6.5 mol/(min·mol CYP)
COc1ccc2cc(-c3ccc(OC(F)(F)F)cc3)c(=O)oc2c1 [Compound 18, 3-(4-trifluoromethoxyphenyl)-7-methoxycoumarin]	LA	oxidized faster by CYP1A2 than CYP1A1 or CYP1B1	oxidized with equal efficiency by CYP1A1 and CYP1A2 and weakly by CYP1B1	
CCOc1ccc2nc3ccc(=O)cc-3oc2c1 [Compound 25, 7-ethoxyresorufin, reference compound]		oxidized faster by CYP1A1 than the other CYP1 enzymes	efficient substrates for CYP1A1 compared with CYP1A2 and CYP1B1	oxidation rate by CYP1A2 and CYP1B1 relative to the rate of CYP1A1 ([1]; 1 μM substrate): 30–40%; oxidation rate relative to oxidation of 7-pentoxyresorufin [1]: 60 times
COc1ccc2oc(=O)c(-c3ccc(O)c(F)c3)cc2c1 [Compound 13, 3-(3-fluoro-4-hydroxyphenyl)-6-methoxycoumarin]		oxidized faster by CYP1A1 than CYP1A2 or CYP1B1	efficient substrates for CYP1A1 compared with CYP1A2 and CYP1B1	Vmax (human CYP1A1): 32 mol/(min·mol CYP)
COc1ccc(-c2cc3cc(OC(C)=O)ccc3oc2=O)cc1 [Compound 17, 3-(4-methoxyphenyl)-6-acetoxycoumarin]	LA	oxidized faster by CYP1A2 than CYP1A1 or CYP1B1		
O=c1oc2ccccc2cc1-c1cccc(O)c1 [Compound 23, 3-(3-hydroxyphenyl)coumarin]	LA	oxidized faster by CYP1A2 than CYP1A1 or CYP1B1		screening activity class (human CYP1A1): LA; fluorescence change and rate of the oxidation [1]: lowest
O=c1oc2ccc(O)cc2cc1-c1cccc(O)c1 [Compound 15, 3-(3-hydroxyphenyl)-6-hydroxycoumarin]		oxidized faster by CYP1A2 than CYP1A1 or CYP1B1	efficient substrate for CYP1A2 compared with CYP1A1 and CYP1B1	Vmax (human CYP1B1; recombinant CYP1B1, surrogate standard, 95% confidence interval in brackets): 0.29 mol/(min·mol CYP)
